Measured values: PubChem BioAssay AID248 (DTP/NCI, 2004)
Where “and” joins values, the source holds several entries; their conditions need not be identical. Equal values may be shown once. Toxic doses and inconclusive results are not listed. Cut-off read from the data, not from the text of the source: active = T/C of 150% or more; inactive = T/C below 125%.

System: L1210 leukemia ip in BDF1 mice, survival T/C
Test: NCI In Vivo Anticancer Drug Screen. Data for tumor model L1210 Leukemia (intraperitoneal) in B6D2F1 (BDF1) mice
Conditions: endpoint: mean survival time, higher = longer survival
Outline: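 Read-out is survival time, reported as the treated-group measurement over the vehicle-control measurement.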

[1] = dose: 75.0 mg/kg/injection, schedule: Q04DX003 (ip), vehicle: other
[2] = dose: 100.0 mg/kg/injection, schedule: Q04DX003 (ip), vehicle: saline with Tween-80
[3] = dose: 200.0 mg/kg/injection, schedule: Q04DX003 (ip), vehicle: saline with Tween-80
[4] = dose: 400.0 mg/kg/injection, schedule: Q04DX003 (ip), vehicle: saline with Tween-80

Measured: T/C

CN(C)C12CCCCC1S(=O)(=O)C2 (stereo unspecified)
inactive: dose: 10.0 mg/kg/injection, schedule: Q01DX009 (ip), vehicle: saline 88 % of control | dose: 20.0 mg/kg/injection, schedule: Q01DX009 (ip), vehicle: saline 98 % of control

COC(=O)CC(Br)CBr (stereo unspecified)
inactive: dose: 100.0 mg/kg/injection, schedule: Q01DX001 (ip), vehicle: carboxymethylcellulose (CMC) 100 % of control | dose: 200.0 mg/kg/injection, schedule: Q01DX001 (ip), vehicle: carboxymethylcellulose (CMC) 100 % of control

COC(=O)/C=C/C(Oc1ccc(C)cc1)C(=O)OC (stereo unspecified)
inactive: [1] 98 % of control | dose: 150.0 mg/kg/injection, schedule: Q04DX003 (ip), vehicle: other 96 % of control | dose: 300.0 mg/kg/injection, schedule: Q04DX003 (ip), vehicle: other 98 % of control

CC(=O)OC1C(OCc2ccccc2)OC(COCc2ccccc2)C(OC2OC(COCc3ccccc3)C(OCc3ccccc3)C(OCc3ccccc3)C2OCc2ccccc2)C1OCc1ccccc1 (stereo unspecified)
inactive: dose: 5.31 mg/kg/injection, schedule: Q01DX009 (ip), vehicle: Klucel (hydroxypropylcellulose) (HPC) 97 % of control | dose: 10.62 mg/kg/injection, schedule: Q01DX009 (ip), vehicle: Klucel (hydroxypropylcellulose) (HPC) 94 % of control | dose: 12.5 mg/kg/injection, schedule: Q04DX003 (ip), vehicle: Klucel (hydroxypropylcellulose) (HPC) 87 % of control and 92 % of control | dose: 21.25 mg/kg/injection, schedule: Q01DX009 (ip), vehicle: Klucel (hydroxypropylcellulose) (HPC) 94 % of control | dose: 25.0 mg/kg/injection, schedule: Q04DX003 (ip), vehicle: Klucel (hydroxypropylcellulose) (HPC) 87 % of control | dose: 50.0 mg/kg/injection, schedule: Q04DX003 (ip), vehicle: Klucel (hydroxypropylcellulose) (HPC) 87 % of control and 88 % of control | [1] 91 % of control | dose: 85.0 mg/kg/injection, schedule: Q01DX009 (ip), vehicle: Klucel (hydroxypropylcellulose) (HPC) 86 % of control | dose: 115.0 mg/kg/injection, schedule: Q04DX003 (ip), vehicle: other 91 % of control | dose: 170.0 mg/kg/injection, schedule: Q04DX003 (ip), vehicle: other 93 % of control

Cc1ncc(CSCC(=O)O)c(N)n1
inactive: dose: 100.0 mg/kg/injection, schedule: Q04DX003 (ip), vehicle: Klucel (hydroxypropylcellulose) (HPC) 103 % of control | dose: 200.0 mg/kg/injection, schedule: Q04DX003 (ip), vehicle: Klucel (hydroxypropylcellulose) (HPC) 100 % of control | dose: 400.0 mg/kg/injection, schedule: Q04DX003 (ip), vehicle: Klucel (hydroxypropylcellulose) (HPC) 103 % of control

CCCc1nc2c(=O)[nH]cnc2o1
inactive: [2] 89 % of control | [3] 95 % of control | [4] 101 % of control

[Cl][Sn]([Cl])([c]1ccccc1)[c]1ccccc1.c1ccc(-c2nnc(-c3ccccn3)nc2-c2ccccc2)cc1
inactive: dose: 3.12 mg/kg/injection, schedule: Q04DX003 (ip), vehicle: saline with Tween-80 96 % of control | dose: 6.25 mg/kg/injection, schedule: Q04DX003 (ip), vehicle: saline with Tween-80 104 % of control | dose: 6.25 mg/kg/injection, schedule: Q04DX003 (ip), vehicle: saline 93 % of control | dose: 12.5 mg/kg/injection, schedule: Q04DX003 (ip), vehicle: saline with Tween-80 112 % of control | dose: 12.5 mg/kg/injection, schedule: Q04DX003 (ip), vehicle: saline 98 % of control | dose: 25.0 mg/kg/injection, schedule: Q04DX003 (ip), vehicle: saline 120 % of control

OCC1OC(n2c(Cl)nc3cc(Cl)c(Cl)cc32)C(O)C1O (stereo unspecified)
inactive: dose: 100.0 mg/kg/injection, schedule: Q01DX005 (ip), vehicle: saline 96 % of control | dose: 200.0 mg/kg/injection, schedule: Q01DX005 (ip), vehicle: saline 96 % of control

Nc1ccnc2n[nH]nc12
inactive: dose: 100.0 mg/kg/injection, schedule: Q01DX001 (ip), vehicle: saline with Tween-80 111 % of control | [2] 101 % of control | dose: 200.0 mg/kg/injection, schedule: Q01DX001 (ip), vehicle: saline with Tween-80 110 % of control | [3] 100 % of control | dose: 400.0 mg/kg/injection, schedule: Q01DX001 (ip), vehicle: saline with Tween-80 104 % of control | [4] 103 % of control

COC(=O)C12OCC34C(CC5C(C)=C(O)C(=O)CC5(C)C3C(O)C1O)OC(=O)C(OC(=O)C=C(C)C)C24 (stereo unspecified)
inactive: dose: 0.78 mg/kg/injection, schedule: Q04DX002 (ip), vehicle: saline with Tween-80 94 % of control | dose: 1.56 mg/kg/injection, schedule: Q04DX002 (ip), vehicle: saline with Tween-80 102 % of control | dose: 3.13 mg/kg/injection, schedule: Q04DX002 (ip), vehicle: saline with Tween-80 105 % of control

CC1(C)N=C(N)N=C(N)N1c1ccc(CCCCc2ccc(Cl)c(S(=O)(=O)F)c2)c(Cl)c1
inactive: dose: 12.5 mg/kg/injection, schedule: Q01DX009 (ip), vehicle: saline sonified 93 % of control | dose: 12.5 mg/kg/injection, schedule: Q04DX003 (ip), vehicle: saline sonified 96 % of control | dose: 25.0 mg/kg/injection, schedule: Q01DX009 (ip), vehicle: saline sonified 94 % of control | dose: 25.0 mg/kg/injection, schedule: Q04DX003 (ip), vehicle: saline sonified 93 % of control | dose: 50.0 mg/kg/injection, schedule: Q01DX009 (ip), vehicle: saline sonified 98 % of control | dose: 50.0 mg/kg/injection, schedule: Q04DX003 (ip), vehicle: saline sonified 93 % of control

CCCCCC[As](=O)(O)O
inactive: dose: 1.5 mg/kg/injection, schedule: Q01DX001 (ip), vehicle: carboxymethylcellulose (CMC) 98 % of control | dose: 3.0 mg/kg/injection, schedule: Q01DX001 (ip), vehicle: carboxymethylcellulose (CMC) 93 % of control | dose: 6.0 mg/kg/injection, schedule: Q01DX001 (ip), vehicle: carboxymethylcellulose (CMC) 102 % of control

COc1cc2c(cc1OC)-c1cc3cc(OC)c(OC)cc3c(CCC(=O)O)[n+]1CC2
inactive: dose: 20.0 mg/kg/injection, schedule: Q04DX002 (ip), vehicle: Klucel (hydroxypropylcellulose) (HPC) 95 % of control | dose: 40.0 mg/kg/injection, schedule: Q04DX002 (ip), vehicle: Klucel (hydroxypropylcellulose) (HPC) 88 % of control | dose: 80.0 mg/kg/injection, schedule: Q04DX002 (ip), vehicle: Klucel (hydroxypropylcellulose) (HPC) 109 % of control

O=C(CBr)c1cc2ncccc2c2ccccc12
inactive: dose: 12.5 mg/kg/injection, schedule: Q01DX009 (ip), vehicle: other 90 % of control | dose: 25.0 mg/kg/injection, schedule: Q01DX009 (ip), vehicle: other 94 % of control | dose: 50.0 mg/kg/injection, schedule: Q01DX009 (ip), vehicle: other 102 % of control

CC(C)(C)C#C/C(=N\Nc1ccc([N+](=O)[O-])cc1[N+](=O)[O-])c1ccccc1
inactive: dose: 50.0 mg/kg/injection, schedule: Q04DX002 (ip), vehicle: saline with Tween-80 89 % of control | dose: 100.0 mg/kg/injection, schedule: Q04DX002 (ip), vehicle: saline with Tween-80 96 % of control | dose: 400.0 mg/kg/injection, schedule: Q04DX002 (ip), vehicle: saline with Tween-80 86 % of control

Cc1c[n+]2c3ccccc3c3ccccc3c2s1
inactive: dose: 5.0 mg/kg/injection, schedule: Q01DX009 (ip), vehicle: Klucel (hydroxypropylcellulose) (HPC) 114 % of control | dose: 10.0 mg/kg/injection, schedule: Q01DX001 (ip), vehicle: saline 105 % of control | dose: 10.0 mg/kg/injection, schedule: Q01DX009 (ip), vehicle: Klucel (hydroxypropylcellulose) (HPC) 118 % of control | dose: 10.0 mg/kg/injection, schedule: Q04DX003 (ip), vehicle: Klucel (hydroxypropylcellulose) (HPC) 94 % of control | dose: 20.0 mg/kg/injection, schedule: Q01DX001 (ip), vehicle: saline 100 % of control | dose: 20.0 mg/kg/injection, schedule: Q01DX009 (ip), vehicle: Klucel (hydroxypropylcellulose) (HPC) 123 % of control | dose: 20.0 mg/kg/injection, schedule: Q04DX003 (ip), vehicle: Klucel (hydroxypropylcellulose) (HPC) 97 % of control | dose: 40.0 mg/kg/injection, schedule: Q01DX001 (ip), vehicle: saline 98 % of control
